Reference: patent US9815865B2, “Preparations of hydrophobic therapeutic agents, methods of manufacture and use thereof” (Aciex Therapeutics, Inc., priority 2013, dated 2017)
Converted amounts (≈) assume the structure as drawn. Where two headings read alike, the source gives them in different places. Each block holds one compound with its values, some of them ahead of it.

Tests used:
Tap density = assay type: physicochemical
[1] = In-vitro dissolution study in vitreous humor; assay type: physicochemical, Bovine; conditions: crystals at 10 μm, 37° C., versus micronized TA at 10μ (FIG. 50)
Protocol: The rate of dissolution of ACX-TA crystals versus micronized TA in vitreous humor was studied. Bovine eyes were obtained fresh, and the vitreous humor was extracted. The vitreous humor was stored at 5° C., prior to use. 1 ml of crystals of various sizes (1.78 μm, 4.7 μm, 10.18 μm, or 15 μm) were incubated in a shaking incubator at 37° C. Crystals were prepared as described in Table 37 or 38. The crystals of 1.78 μm were prepared using citrate buffer and were of Form B, and the crystals of 4.7 μm, 10.18 μm, and 15 μm were prepared using phosphate buffer and were of Form C.

[2] = Saturated solubility and rate of dissolution of FP
Protocol: The saturated solubility of FP was measured by HPLC for the nanocrystals produced by the batch process of the invention, FP homogenized and FP stock material.

[3] = Stability of FP nanocrystal suspensions (assay, impurities, pH, particle size); assay type: physicochemical
Source text: This phase III composition was also stable chemically for more than 4 weeks at 40 degrees C. This combination of polymers also maintains the particle size at its original size for 5-14 days.
The stability of the nanocrystals is controlled by the pH of phase III, which is formed by the combination of phase I and phase II. A 20 gram batch of nanocrystals were produced at pH 5.5 and placed on stability at 25 degrees C. Another 20 gram batch was produced at pH 7.5 and stability determined at 25 degrees C. for 30 days. Unexpectedly, the particles at 7.5 grew rapidly to an average particle size greater than 1 micron. This phenomenon was verified for batches at the 50 gram scale.
It was also observed that the final compositions or formulations of FP were stable across all concentrations tested, i.e., 0.005%, 0.01%, 0.1%, and 10%. Samples were placed in 4° C., 25° C., 40° C. stability chambers. Stability time-points: T=0d, T=1 week, T=2 weeks, T=4 weeks.
Nanocrystals prepared by the batch process were tested on stability, to assess if the particle size distribution remained with a narrow range of 400-600 nm. […]
Samples were measured for particle size, pH, osmolality and assay. […]

[4] = Thermal analysis (DSC/TGA); assay type: physicochemical
Protocol: The table below summarizes the testing conditions and parameters for the simultaneous thermal analysis tests. The samples were (a) Fluticasone Propionate nanocrystals, and (b) Fluticasone Propionate, stock material. The specimens were tested under a heating rate of 10° C./min starting at 30° C. until reaching a final temperature of 350° C. This process was repeated for each specimen. The experiments were performed at EBATCO, LLC, Eden Prairie, Minn.
Thermal properties of the TA particles from Example 9 were investigated using a SHIMADZU® DSC-60 and TGA-50.
Approximately 10 mg of sample was analyzed in an open aluminum pan, and heated at scanning rate of 10° C.·min^−1 from room temperature to 320° C. […] Peak of the heat of melting is at 289.42° C., with ΔHm=83.50 J/g. In comparison, peak of the heat of melting for the nanocrystals produced by the process described in Example 9 is at 275.78° C., with ΔHm=108.45 J/g (FIG. 34).

[5] = oral dosing of labeled and unlabeled conventional fluticasone propionate; cited from earlier work
[6] = Solubility of fluticasone propionate in FDA-approved solvents and excipients (RP-HPLC at 239 nm); assay type: physicochemical
Protocol: The specific composition of Phase I depends upon the solubility of the drug in this phase. […] The suspension was centrifuged at 10,000 rpm and the supernatant analyzed by RP-HPLC at 239 nm.

[7] = cited from earlier work
[8] = Solubility of triamcinolone acetonide in non-aqueous solvents; assay type: physicochemical; conditions: preliminary estimation; for solubility at 15 min: organic solvent or mixture, thermodynamic from solid
Protocol: Triamcinolone Acetonide (TA), stock was used as received from the manufacturer. Solubility of Triamcinolone Acetonide (TA) was measured in propylene glycol, polypropylene glycol, TWEEN® 20 (polysorbate 20), TWEEN 80 (polysorbate 80), PEG 400.
Initially, 5 mg of the TA was added to 10 g of solvent; the mixture was vortexed for 5 min, and sonicated for 10 min in a water bath. 1-5 mg of TA was added when the initial amount dissolved in the solvent completely—clear solution of TA in solvent. The process was continued until saturation solubility was reached. The solvent that provided the highest solubility was chosen for further development as Phase I.
The solubility of TA in propylene glycol, polypropylene glycol, PEG 400, TWEEN® 20 (polysorbate 20) and TWEEN® 80 (polysorbate 80) was evaluated. Initially, 5 mg of TA was added to these solvents and the suspension was vortexed and sonicated for 15 min in a water bath at 37° C. When the API (i.e., TA) dissolved, 1 mg of drug was added to the vial. This process was continued until a preliminary estimation of the drug in all solvents was achieved.

SMILES: CC1(C)O[C@@H]2C[C@H]3[C@@H]4CCC5=CC(=O)C=C[C@]5(C)[C@@]4(F)[C@@H](O)C[C@]3(C)[C@]2(C(=O)CO)O1 [ACX-TA crystals]
tap density (Tap density): 0.5677 g/mL
rate of dissolution in vitreous humor [1]: much slower rate of dissolution than micronized TA

SMILES: CCC(=O)O[C@]1(C(=O)SCF)[C@H](C)C[C@H]2[C@@H]3C[C@H](F)C4=CC(=O)C=C[C@]4(C)[C@@]3(F)[C@@H](O)C[C@@]21C [FP homogenized]
saturated solubility [2]: 40 to 45 µg/mL

SMILES: CCC(=O)O[C@]1(C(=O)SCF)[C@H](C)C[C@H]2[C@@H]3C[C@H](F)C4=CC(=O)C=C[C@]4(C)[C@@]3(F)[C@@H](O)C[C@@]21C [FP stock material]
time to reach saturated solubility [2]: ≤ 2 weeks
tap density (Tap density; listed as fluticasone propionate stock): 0.3278 g/mL

SMILES: CCC(=O)O[C@]1(C(=O)SCF)[C@H](C)C[C@H]2[C@@H]3C[C@H](F)C4=CC(=O)C=C[C@]4(C)[C@@]3(F)[C@@H](O)C[C@@]21C [Form A]
agglomeration over time ([3]; after purification (FIG. 10)): did not display any agglomeration over time
average particle size on stability ([3]; phase III pH 7.5, 25 degrees C. for 30 days): greater than 1 micron
dissolution rate ([2]; in water at room temperature): about 1 μg/g/day
time to reach saturated solubility ([2]; incubation in an aqueous medium): 6 weeks
tap density (Tap density): 0.5786 g/mL
tap density (Tap density; listed as dried fluticasone propionate crystals prepared by the batch process): 0.5786 g/mL

SMILES: CCC(=O)O[C@]1(C(=O)SCF)[C@H](C)C[C@H]2[C@@H]3C[C@H](F)C4=CC(=O)C=C[C@]4(C)[C@@]3(F)[C@@H](O)C[C@@]21C [fluticasone propionate, (6α,11β,16α,17α)-6,9,-difluoro-11-hydroxy-16-methyl-3-oxo-17-(1-oxopropoxy) androsta-1,4-diene-17-carbothioic acid, S-fluoromethyl ester]
oral systemic bioavailability [5]: < 1%
solubility ([6]; Acetone, 25 °C, organic solvent or mixture, thermodynamic from solid, in Acetone, overnight at 25 degrees centigrade, read-out: Solubility): 63000 µg/mL (≈ 126 mM)
solubility ([6]; Castor oil, 25 °C, oil or lipid, thermodynamic from solid, in Castor oil, overnight at 25 degrees centigrade, read-out: Solubility): 18 µg/mL (≈ 0.036 mM)
solubility ([6]; Corn oil, 25 °C, oil or lipid, thermodynamic from solid, in Corn oil, overnight at 25 degrees centigrade, read-out: Solubility): 6.9 µg/mL (≈ 0.0138 mM)
solubility ([6]; Ethanol, 25 °C, organic solvent or mixture, thermodynamic from solid, in Ethanol, equilibrated overnight at 25 degrees centigrade, read-out: Solubility): 4450 µg/mL (≈ 8.88 mM)
solubility ([6]; Glycerin, 25 °C, organic solvent or mixture, thermodynamic from solid, in Glycerin, overnight at 25 degrees centigrade, read-out: Solubility): 144 µg/mL (≈ 0.288 mM)
solubility ([6]; Methylene Chloride, 25 °C, organic solvent or mixture, thermodynamic from solid, in Methylene Chloride, overnight at 25 degrees centigrade, read-out: Solubility): 9250 µg/mL (≈ 18.5 mM)
solubility ([6]; PEG 200, 25 °C, organic solvent or mixture, thermodynamic from solid, in PEG 200, overnight at 25 degrees centigrade, read-out: Solubility): 4210 µg/mL (≈ 8.4 mM)
solubility ([6]; PEG 400, 25 °C, organic solvent or mixture, thermodynamic from solid, in PEG 400, overnight at 25 degrees centigrade, read-out: Solubility): 4330 µg/mL (≈ 8.65 mM)
solubility ([6]; PHOSAL 50 PG, 25 °C, oil or lipid, thermodynamic from solid, in PHOSAL 50 PG, overnight at 25 degrees centigrade, read-out: Solubility): 426 µg/mL (≈ 0.851 mM)
solubility ([6]; PPG, 25 °C, organic solvent or mixture, thermodynamic from solid, in PPG, overnight at 25 degrees centigrade, read-out: Solubility): 2230 µg/mL (≈ 4.45 mM)
solubility ([6]; Polysorbate 20, 25 °C, aqueous with cosolvent or surfactant or cyclodextrin, thermodynamic from solid, in Polysorbate 20, overnight at 25 degrees centigrade, read-out: Solubility): 7060 µg/mL (≈ 14.1 mM)
solubility ([6]; Polysorbate 60, 25 °C, aqueous with cosolvent or surfactant or cyclodextrin, thermodynamic from solid, in Polysorbate 60, overnight at 25 degrees centigrade, read-out: Solubility): 4910 µg/mL (≈ 9.81 mM)
solubility ([6]; Polysorbate 80, 25 °C, aqueous with cosolvent or surfactant or cyclodextrin, thermodynamic from solid, in Polysorbate 80, overnight at 25 degrees centigrade, read-out: Solubility): 4660 µg/mL (≈ 9.3 mM)
solubility ([6]; Propylene glycol, 25 °C, organic solvent or mixture, thermodynamic from solid, in Propylene glycol, overnight at 25 degrees centigrade, read-out: Solubility): 764 µg/mL (≈ 1.53 mM)
solubility ([6]; Span 20, 25 °C, aqueous with cosolvent or surfactant or cyclodextrin, thermodynamic from solid, in Span 20, overnight at 25 degrees centigrade, read-out: Solubility): 46.9 µg/mL (≈ 0.0937 mM)
solubility ([6]; Span 80, 25 °C, aqueous with cosolvent or surfactant or cyclodextrin, thermodynamic from solid, in Span 80, overnight at 25 degrees centigrade, read-out: Solubility): 52.1 µg/mL (≈ 0.104 mM)
solubility ([6]; in Dextrose 5%, overnight at 25 degrees centigrade): 5.3 µg/mL (≈ 0.0106 mM)
solubility ([6]; in PHOSAL 50 PG, overnight at 25 degrees centigrade): 660.1 µg/mL (≈ 1.32 mM)
solubility ([6]; in PHOSAL 53 MCT, overnight at 25 degrees centigrade): 400 µg/mL (≈ 0.799 mM)
solubility ([6]; in n-octanol, overnight at 25 degrees centigrade): 87.3 µg/mL (≈ 0.174 mM)
solubility ([6]; oleic acid, 25 °C, oil or lipid, thermodynamic from solid, in oleic acid, overnight at 25 degrees centigrade, read-out: Solubility): 13.6 µg/mL (≈ 0.0272 mM)
solubility ([6]; phosphate buffer, 25 °C, pH 7, aqueous buffer, thermodynamic from solid, in Phos buff pH = 7, overnight at 25 degrees centigrade, read-out: Solubility): 9.5 µg/mL (≈ 0.019 mM)
solubility ([6]; water, 25 °C, water, thermodynamic from solid, in water, overnight at 25 degrees centigrade, read-out: Solubility): 0.14 µg/mL (≈ 0.00028 mM)
solubility (descriptive) ([7]; in dimethyl sulfoxide and dimethyl-formamide): freely soluble
solubility (descriptive) ([7]; in methanol and 95% ethanol): slightly soluble

Now from value to compound, other results behind:

Tm (Melting Point) [4]: 289.61 °C
SMILES: CC1(C)O[C@@H]2C[C@H]3[C@@H]4CCC5=CC(=O)C=C[C@]5(C)[C@@]4(F)[C@@H](O)C[C@]3(C)[C@]2(C(=O)CO)O1 [Stock TA, as purchased]

tap density (Tap density): 0.4211 g/mL
SMILES: CC1(C)O[C@@H]2C[C@H]3[C@@H]4CCC5=CC(=O)C=C[C@]5(C)[C@@]4(F)[C@@H](O)C[C@]3(C)[C@]2(C(=O)CO)O1 [TA stock material]

solubility ([8]; in PEG 400, 37° C.): 7000 µg/mL (≈ 16.1 mM)
solubility ([8]; in polypropylene glycol, 37° C.): 8000 µg/mL (≈ 18.4 mM)
solubility at 15 min ([8]; in Propylene glycol, sonicated in water bath at 37° C.): 14000 µg/mL (≈ 32.2 mM)
solubility at 15 min ([8]; in TWEEN 20 (polysorbate 20), 37° C.): 5500 µg/mL (≈ 12.7 mM)
solubility at 15 min ([8]; in TWEEN 80 (polysorbate 80), 37° C.): 4000 µg/mL (≈ 9.21 mM)
SMILES: CC1(C)O[C@@H]2C[C@H]3[C@@H]4CCC5=CC(=O)C=C[C@]5(C)[C@@]4(F)[C@@H](O)C[C@]3(C)[C@]2(C(=O)CO)O1 [triamcinolone acetonide, (4aS,4bR,5S,6aS,6bS,9aR,10aS,10bS)-4b-fluoro-6b-glycoloyl-5-hydroxy-4a,6a,8,8-tetramethyl-4a,4b,5,6,6a,6b,9a,10,10a,10b,11,12-dodecahydro-2H-naphtho[2′,1′:4,5]indeno[1,2-d][1,3] dioxol-2-one]
water solubility ([7]; at 28° C.): 17.5 µg/mL (≈ 0.0403 mM)
solubility (descriptive) ([7]; in water): practically insoluble
